Experimental data as given in ChEMBL document CHEMBL4715734, “Discovery of the Potent and Selective M1 PAM-Agonist N-[(3R,4S)-3-Hydroxytetrahydro-2H-pyran-4-yl]-5-methyl-4-[4-(1,3-thiazol-4-yl)benzyl]pyridine-2-carboxamide (PF-06767832): Evaluation of Efficacy and Cholinergic Side Effects” (J Med Chem, 2016).

Experiments:
[1] = Permeability of compound in MDCKII-LE cells; type: ADME, cell-based, Canis lupus familiaris; settings: dog, MDCK; read-out: permeability
[2] = biological target: T1, Muscarinic acetylcholine receptor M1 (Homo sapiens, UniProt P11229); assay: Positive allosteric modulation of human muscarinic M1 receptor stably expressed in CHO cells assessed as increase in Ach-induced intracellular calcium level preincubated for 10 mins followed by addition of Ach at EC20 concentration by Fluo-8AM dye based FLIPR TETRA method; type: functional, cell-based
T1 sequence (P11229 whole entry): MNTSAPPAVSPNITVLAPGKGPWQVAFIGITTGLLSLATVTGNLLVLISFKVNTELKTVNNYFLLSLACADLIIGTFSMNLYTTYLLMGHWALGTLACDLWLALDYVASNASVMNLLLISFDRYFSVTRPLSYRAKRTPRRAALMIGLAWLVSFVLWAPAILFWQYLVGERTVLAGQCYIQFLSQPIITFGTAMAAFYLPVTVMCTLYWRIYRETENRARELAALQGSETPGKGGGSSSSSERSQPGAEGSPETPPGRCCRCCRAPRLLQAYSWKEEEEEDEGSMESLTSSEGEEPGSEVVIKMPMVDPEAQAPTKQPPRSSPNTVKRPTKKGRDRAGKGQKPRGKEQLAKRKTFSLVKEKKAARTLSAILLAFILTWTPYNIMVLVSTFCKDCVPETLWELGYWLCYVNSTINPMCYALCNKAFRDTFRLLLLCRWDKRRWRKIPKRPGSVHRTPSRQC

[3] = Intrinsic clearance in human liver microsome; type: ADME; settings: liver microsomes, read-out: CLH
MDR1 (P-gp) = assay: Efflux ratio of permeability across basolateral to apical side over apical to basolateral side in dog MDCK-MDR1 cells; type: ADME, cell-based, Canis lupus familiaris
[4] = Ratio of AUC in mouse brain to plasma; type: ADME, cell-free; settings: brain and plasma, read-out: Ratio AUC
[5] = Ratio of fAUC in C57BL/6 mouse brain to plasma; type: ADME, cell-free; settings: brain and plasma, read-out: Ratio AUC
[6] = Ratio of AUC in C57BL/6 mouse brain to plasma at 1 mg/kg, sc; type: ADME, organism-based; settings: brain and plasma, read-out: Ratio AUC
[7] = Fraction unbound in C57BL/6 mouse plasma; type: ADME, cell-free
[8] = Fraction unbound in rat brain; type: ADME, cell-free

## Cc1cc(N)c(C(=O)N[C@H]2CCOC[C@@H]2O)cc1Cc1ccc(-n2cccn2)cc1 (racemic)
[1]
  Papp: 19 ×10⁻⁶ cm/s
[2]
  EC50: > 9000 nM
[3]
  CLint scaled: 23 mL/min/kg
MDR1 (P-gp)
  efflux ratio: 1.9

## Cc1ncc(C(=O)N[C@H]2CCOC[C@@H]2O)cc1Cc1ccc(-n2cccn2)cc1
[1]
  Papp: 8 ×10⁻⁶ cm/s
[2]
  EC50: 392 nM
[3]
  CLint scaled: < 8 mL/min/kg
MDR1 (P-gp)
  efflux ratio: 6.3

## Cc1c(Cc2ccc(-c3ccn(C)n3)cc2)cc(C(=O)N[C@H]2CCCC[C@@H]2O)c(=O)n1C
[1]
  Papp: 13 ×10⁻⁶ cm/s
[2]
  EC50: 102 nM
[3]
  CLint scaled: 13 mL/min/kg
MDR1 (P-gp)
  efflux ratio: 3.1

## Cc1c(Cc2ccc(-c3cscn3)cc2)cc(C(=O)N[C@H]2CCCC[C@@H]2O)c(=O)n1C
[1]
  Papp: 17 ×10⁻⁶ cm/s
[2]
  EC50: 166 nM
[3]
  CLint scaled: 26 mL/min/kg
MDR1 (P-gp)
  efflux ratio: 2.4

## Cc1c(Cc2ccc(-n3cccn3)cc2)cc(C(=O)N[C@H]2CCCC[C@@H]2O)c(=O)n1C
[1]
  Papp: 23 ×10⁻⁶ cm/s
[2]
  EC50: 29 nM
[3]
  CLint scaled: 20 mL/min/kg
MDR1 (P-gp)
  efflux ratio: 2.7
[4]
  Kp: 0.05

## Cc1c(Cc2ccc(-c3cocn3)cc2)cc(C(=O)N[C@H]2CCCC[C@@H]2O)c(=O)n1C
[1]
  Papp: 26 ×10⁻⁶ cm/s
[2]
  EC50: 38 nM
[3]
  CLint scaled: 17 mL/min/kg
MDR1 (P-gp)
  efflux ratio: 2.4
[4]
  Kp: 0.03

## O=C(N[C@H]1CCOC[C@@H]1O)c1cc(Cc2ccc(-n3cccn3)cc2)ccn1
[1]
  Papp: 24 ×10⁻⁶ cm/s
[2]
  EC50: > 9000 nM
[3]
  CLint scaled: < 8 mL/min/kg
MDR1 (P-gp)
  efflux ratio: 1.8

## Cc1cnc(C(=O)N[C@H]2CCOC[C@@H]2O)cc1Cc1ccc(-n2cccn2)cc1
[5]
  Kp uu: 0.23
[1]
  Papp: 21 ×10⁻⁶ cm/s
[6]
  Kp: 0.2
[3]
  CLint scaled: < 8 mL/min/kg
MDR1 (P-gp)
  efflux ratio: 1.4
[7]
  Fu: 7.4%
[8]
  Fu: 9%

## Cc1cc(F)c(C(=O)N[C@H]2CCOC[C@@H]2O)cc1Cc1ccc(-n2cccn2)cc1
[1]
  Papp: 20 ×10⁻⁶ cm/s
[2]
  EC50: 115 nM
[3]
  CLint scaled: < 10 mL/min/kg
MDR1 (P-gp)
  efflux ratio: 1.5

## Cc1cnc(C(=O)N[C@H]2CCOC[C@@H]2O)cc1Cc1ccc(-c2cocn2)cc1
[1]
  Papp: 32 ×10⁻⁶ cm/s
[3]
  CLint scaled: < 8 mL/min/kg
MDR1 (P-gp)
  efflux ratio: 1.2

## Cc1c(Cc2ccc(-n3cccn3)cc2)cc(C(=O)N[C@H]2CCOC[C@@H]2O)c(=O)n1C
[1]
  Papp: 20 ×10⁻⁶ cm/s
[2]
  EC50: 20 nM
[3]
  CLint scaled: < 8 mL/min/kg
MDR1 (P-gp)
  efflux ratio: > 5.3

## Cc1ccc(C(=O)N[C@H]2CCOC[C@@H]2O)cc1Cc1ccc(-n2cccn2)cc1
[1]
  Papp: 16 ×10⁻⁶ cm/s
[2]
  EC50: 208 nM
[3]
  CLint scaled: < 8 mL/min/kg
MDR1 (P-gp)
  efflux ratio: 2.2

## CO[C@@H]1CCN(c2ccc(Cc3cc(C(=O)N[C@H]4CCCC[C@@H]4O)c(=O)n(C)c3C)cc2)C1
[1]
  Papp: 23 ×10⁻⁶ cm/s
[2]
  EC50: 1690 nM
[3]
  CLint scaled: 22 mL/min/kg
MDR1 (P-gp)
  efflux ratio: 2.2

## Cc1cnc(C(=O)N[C@H]2CCCC[C@@H]2O)cc1Cc1ccc(-n2cccn2)cc1 (single isomer, unassigned)
[1]
  Papp: 19 ×10⁻⁶ cm/s
[3]
  CLint scaled: 20 mL/min/kg
MDR1 (P-gp)
  efflux ratio: 1.5
